Measured values from ChEMBL document CHEMBL1201862, “PubChem BioAssay data set” (2004).
Where “and” joins values, the source holds several entries; their conditions need not be identical. Equal values may be shown once.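 Each compound was tested at five concentrations against cells in 96-well plates for 48 hours. GI50 is the concentration that inhibits growth by half.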 Calls of active or inactive are those of the source. No stated cut-off is given here; in the data, active = GI50 up to about 1.1 µM and inactive = higher.

How the values were obtained:
Test in all cases: inhibition of tumour cell growth, NCI panel, 48 h
786-0 = test system: 786-0
A498 = test system: A498
A549 = test system: A549
ACHN = test system: ACHN
BT-549 = test system: BT-549
CAKI-1 = test system: CAKI-1
CCRF-CEM = test system: CCRF-CEM
COLO 205 = test system: COLO 205
DU-145 = test system: DU-145
EKVX = test system: EKVX
HCC 2998 = test system: HCC 2998
HCT-116 = test system: HCT-116
HCT-15 = test system: HCT-15
HL-60 = test system: HL-60
HOP-62 = test system: HOP-62
HOP-92 = test system: HOP-92
HT-29 = test system: HT-29
Hs-578T = test system: Hs-578T
IGROV-1 = test system: IGROV-1
K562 = test system: K562
KM12 = test system: KM12
LOX IMVI = test system: LOX IMVI
M14 = test system: M14
MCF7 = test system: MCF7
MDA-MB-435 = test system: MDA-MB-435
MDA-N = test system: MDA-N
MOLT-4 = test system: MOLT-4
Malme-3M = test system: Malme-3M
NCI-H226 = test system: NCI-H226
NCI-H23 = test system: NCI-H23
NCI-H460 = test system: NCI-H460
NCI-H522 = test system: NCI-H522
NCI/ADR-RES = test system: NCI/ADR-RES
OVCAR-3 = test system: OVCAR-3
OVCAR-4 = test system: OVCAR-4
OVCAR-5 = test system: OVCAR-5
PC-3 = test system: PC-3
RPMI-8226 = test system: RPMI-8226
RXF 393 = test system: RXF 393
SF-268 = test system: SF-268
SF-295 = test system: SF-295
SF-539 = test system: SF-539
SK-MEL-28 = test system: SK-MEL-28
SK-MEL-2 = test system: SK-MEL-2
SK-MEL-5 = test system: SK-MEL-5
SK-OV-3 = test system: SK-OV-3
SN12C = test system: SN12C
SNB-19 = test system: SNB-19
SR = test system: SR
SW-620 = test system: SW-620
T47D = test system: T47D
TK-10 = test system: TK-10
U-251 = test system: U-251
UACC-257 = test system: UACC-257
UACC-62 = test system: UACC-62
UO-31 = test system: UO-31
MDA-MB-231 = test system: MDA-MB-231
OVCAR-8 = test system: OVCAR-8

For `CCOC(=O)/C=C/C1=C(Br)[C@@]2(C)CC[C@@H]3c4ccc(O)cc4CC[C@H]3[C@@H]2C1`, the GI50 (786-0) was 12.8 µM (inactive), the GI50 (A498) was 18.1 µM (inactive) and the GI50 (A549) was 16.9 µM (inactive). For the same compound, the GI50 (ACHN) was 15.7 µM (inactive), the GI50 (BT-549) was 14.3 µM (inactive) and the GI50 (CAKI-1) was 16.4 µM (inactive). For the same compound, the GI50 (CCRF-CEM) was 7.83 µM (inactive), the GI50 (COLO 205) was 17.8 µM (inactive) and the GI50 (DU-145) was 6.87 µM (inactive). For the same compound, the GI50 (EKVX) was 17.1 µM (inactive), the GI50 (HCC 2998) was 14.8 µM (inactive) and the GI50 (HCT-116) was 13.7 µM (inactive). For the same compound, the GI50 (HCT-15) was 12.1 µM, the GI50 (HL-60) was 17.9 µM (inactive) and the GI50 (HOP-62) was 14.4 µM (inactive). The GI50 (HOP-92) was 11.6 µM (inactive), the GI50 (HT-29) was 14.6 µM (inactive) and the GI50 (Hs-578T) was 15.6 µM (inactive). The GI50 (IGROV-1) was 12.2 µM (inactive), the GI50 (K562) was 9.98 µM (inactive) and the GI50 (KM12) was 16.2 µM (inactive). For the same compound, the GI50 (LOX IMVI) was 7.08 µM (inactive), the GI50 (M14) was 11.7 µM (inactive) and the GI50 (MCF7) was 13.6 µM (inactive). For the same compound, the GI50 (MDA-MB-435) was 15.2 µM (inactive), the GI50 (MDA-N) was 13.8 µM (inactive) and the GI50 (MOLT-4) was 12.5 µM (inactive). The GI50 (Malme-3M) was 12 µM (inactive), the GI50 (NCI-H226) was 15.2 µM (inactive) and the GI50 (NCI-H23) was 13.7 µM (inactive). The GI50 (NCI-H460) was 14.7 µM (inactive), the GI50 (NCI-H522) was 4.02 µM (inactive) and the GI50 (NCI/ADR-RES) was 14.7 µM (inactive). For the same compound, the GI50 (OVCAR-3) was 7.94 µM (inactive), the GI50 (OVCAR-4) was 14.5 µM (inactive) and the GI50 (OVCAR-5) was 15.2 µM (inactive). The GI50 (PC-3) was 15.2 µM (inactive), the GI50 (RPMI-8226) was 2.17 µM (inactive) and the GI50 (RXF 393) was 15.7 µM (inactive). For the same compound, the GI50 (SF-268) was 19 µM (inactive), the GI50 (SF-295) was 15.8 µM (inactive) and the GI50 (SF-539) was 17 µM (inactive). For the same compound, the GI50 (SK-MEL-28) was 16.4 µM (inactive), the GI50 (SK-MEL-2) was 14.9 µM (inactive) and the GI50 (SK-MEL-5) was 13.6 µM (inactive). For the same compound, the GI50 (SK-OV-3) was 15.4 µM (inactive), the GI50 (SN12C) was 13.6 µM (inactive) and the GI50 (SNB-19) was 16.6 µM (inactive). The GI50 (SR) was 7.03 µM (inactive), the GI50 (SW-620) was 13.7 µM (inactive) and the GI50 (T47D) was 4.86 µM (inactive). For the same compound, the GI50 (TK-10) was 17.9 µM (inactive), the GI50 (U-251) was 16.6 µM (inactive) and the GI50 (UACC-257) was 13.9 µM (inactive). The GI50 (UACC-62) was 6.85 µM (inactive) and the GI50 (UO-31) was 16.8 µM (inactive).

`CC(=O)OCC1OC(n2c(C)c(C)cc(C#N)c2=S)C(OC(C)=O)C(OC(C)=O)C1OC(C)=O` (stereo unspecified) was tested, and the GI50 (786-0) was > 100 µM (inactive), the GI50 (A498) was > 100 µM (inactive) and the GI50 (A549) was > 100 µM (inactive). For the same compound, the GI50 (ACHN) was > 100 µM (inactive), the GI50 (BT-549) was > 100 µM (inactive) and the GI50 (CAKI-1) was > 100 µM (inactive). For the same compound, the GI50 (CCRF-CEM) was > 10 µM (inactive), the GI50 (DU-145) was > 100 µM (inactive) and the GI50 (EKVX) was > 100 µM (inactive). The GI50 (HCC 2998) was > 100 µM (inactive), the GI50 (HCT-116) was > 100 µM (inactive) and the GI50 (HCT-15) was over 100 µM. The GI50 (HL-60) was > 100 µM (inactive), the GI50 (HOP-62) was > 100 µM (inactive) and 91 µM (inactive) and the GI50 (HT-29) was > 100 µM (inactive). The GI50 (Hs-578T) was > 100 µM (inactive), the GI50 (IGROV-1) was > 100 µM (inactive) and the GI50 (K562) was > 100 µM (inactive). The GI50 (KM12) was > 100 µM (inactive), the GI50 (LOX IMVI) was > 100 µM (inactive) and the GI50 (M14) was > 100 µM (inactive). The GI50 (MCF7) was > 100 µM (inactive), the GI50 (MDA-MB-231) was > 100 µM (inactive) and the GI50 (MDA-N) was > 100 µM (inactive). For the same compound, the GI50 (MOLT-4) was > 100 µM (inactive), the GI50 (Malme-3M) was > 100 µM (inactive) and the GI50 (NCI-H226) was > 100 µM (inactive). The GI50 (NCI-H23) was > 100 µM (inactive), the GI50 (NCI-H460) was > 100 µM (inactive) and the GI50 (NCI-H522) was > 100 µM (inactive) and 52.4 µM (inactive). The GI50 (OVCAR-3) was > 100 µM (inactive), the GI50 (OVCAR-4) was > 100 µM (inactive) and the GI50 (OVCAR-8) was > 100 µM (inactive). For the same compound, the GI50 (PC-3) was > 100 µM (inactive), the GI50 (RPMI-8226) was > 100 µM (inactive) and the GI50 (RXF 393) was > 100 µM (inactive). The GI50 (SF-268) was 60.5 µM (inactive), the GI50 (SF-295) was > 100 µM (inactive) and the GI50 (SF-539) was > 100 µM (inactive). The GI50 (SK-MEL-28) was > 100 µM (inactive), the GI50 (SK-MEL-2) was > 100 µM (inactive) and 72.1 µM (inactive) and the GI50 (SK-MEL-5) was > 100 µM (inactive). The GI50 (SN12C) was > 100 µM (inactive), the GI50 (SNB-19) was > 100 µM (inactive) and the GI50 (SR) was > 100 µM (inactive). For the same compound, the GI50 (SW-620) was > 100 µM (inactive), the GI50 (T47D) was > 100 µM (inactive) and the GI50 (TK-10) was > 100 µM (inactive). For the same compound, the GI50 (U-251) was > 100 µM (inactive), the GI50 (UACC-257) was > 100 µM (inactive) and the GI50 (UACC-62) was 65.2 µM (inactive). The GI50 (UO-31) was > 100 µM (inactive).

With `COc1cc(/C=C2/SC(c3ccccc3)N(Cc3ccccc3)C2=O)cc(OC)c1OC` (stereo unspecified) the GI50 (786-0) was 33.2 µM (inactive), the GI50 (A498) was 49.1 µM (inactive) and the GI50 (A549) was 67 µM (inactive). The GI50 (ACHN) was 44.8 µM (inactive), the GI50 (BT-549) was 39 µM (inactive) and the GI50 (CAKI-1) was > 100 µM (inactive). For the same compound, the GI50 (COLO 205) was 19.8 µM (inactive), the GI50 (DU-145) was 42.7 µM (inactive) and the GI50 (EKVX) was 42.9 µM (inactive). For the same compound, the GI50 (HCC 2998) was 80.5 µM (inactive), the GI50 (HCT-116) was 14.9 µM (inactive) and the GI50 (HCT-15) was 38.7 µM. For the same compound, the GI50 (HOP-62) was 54.3 µM (inactive), the GI50 (HOP-92) was 32.8 µM (inactive) and the GI50 (HT-29) was 25.9 µM (inactive). For the same compound, the GI50 (Hs-578T) was 40.6 µM (inactive), the GI50 (K562) was 16.4 µM (inactive) and the GI50 (KM12) was 27.2 µM (inactive). The GI50 (LOX IMVI) was 34.8 µM (inactive), the GI50 (M14) was 75.3 µM (inactive) and the GI50 (MCF7) was 30.3 µM (inactive). The GI50 (MDA-MB-231) was > 100 µM (inactive), the GI50 (MDA-MB-435) was 53.2 µM (inactive) and the GI50 (MDA-N) was 29.6 µM (inactive). The GI50 (MOLT-4) was 14.4 µM (inactive), the GI50 (Malme-3M) was 38.4 µM (inactive) and the GI50 (NCI-H226) was 53.7 µM (inactive). The GI50 (NCI-H23) was 31.6 µM (inactive), the GI50 (NCI-H460) was 38.2 µM (inactive) and the GI50 (NCI-H522) was 17.2 µM (inactive). The GI50 (NCI/ADR-RES) was 35 µM (inactive), the GI50 (OVCAR-3) was 33.7 µM (inactive) and the GI50 (OVCAR-4) was 31.4 µM (inactive). For the same compound, the GI50 (OVCAR-5) was 80.9 µM (inactive), the GI50 (OVCAR-8) was 37.7 µM (inactive) and the GI50 (RPMI-8226) was 14.4 µM (inactive). The GI50 (RXF 393) was 7.14 µM (inactive), the GI50 (SF-268) was 48.1 µM (inactive) and the GI50 (SF-295) was 30.6 µM (inactive). The GI50 (SK-MEL-28) was 47.1 µM (inactive), the GI50 (SK-MEL-2) was 47.8 µM (inactive) and the GI50 (SK-MEL-5) was 12.1 µM (inactive). For the same compound, the GI50 (SK-OV-3) was 41.1 µM (inactive), the GI50 (SN12C) was 21.5 µM (inactive) and the GI50 (SNB-19) was > 100 µM (inactive). For the same compound, the GI50 (SR) was 14.2 µM (inactive), the GI50 (SW-620) was 63.2 µM (inactive) and the GI50 (T47D) was 27.2 µM (inactive). For the same compound, the GI50 (TK-10) was 53 µM (inactive), the GI50 (U-251) was 36.7 µM (inactive) and the GI50 (UACC-257) was 33.7 µM (inactive). For the same compound, the GI50 (UACC-62) was 42.5 µM (inactive) and the GI50 (UO-31) was 40.5 µM (inactive).
